Results published in US12509452B2, “Substituted-isoxazoline-containing aromatic compound, preparation method therefor, herbicidal composition and use thereof” (QINGDAO KINGAGROOT CHEMICAL COMPOUND CO., LTD., priority 2019, dated 2025).

Legend:
Assay in all cases: weeding effect in post-emergence stage
Format in all cases: in vivo
Rorippa indica = test system: Rorippa indica
Description: (§1) The activity level criteria for plant damage (i.e., growth control rate) are as follows: • Level 5: growth control rate is above 85%; • Level 4: growth control rate is greater than or equal to 60% and less than 85%; • Level 3: growth control rate is greater than or equal to 40% and less than 60%; • Level 2: growth control rate is greater than or equal to 20% and less than 40%; • Level 1: growth control rate is greater than or equal to 5% and less than 20%; • Level 0: growth control rate is less than 5%.
(§2) The above growth control rates are fresh weight control rates.
(§3) Experiment on weeding effect in post-emergence stage:
(§4) Monocotyledonous and dicotyledonous weed seeds (Descurainia sophia, Capsella bursa-pastoris, Abutilon theophrasti, Galium aparine, Stellaria media, Lithospermum arvense, Rorippa indica, Alopecurus aequalis, Alopecurus japonicus, Beckmannia syzigachne, Sclerochloa dura, Conyza Canadensis, Phleum paniculatum, Veronica didyma Tenore, Bromus japonicus, Aegilops tauschii, Phalaris arundinacea, Amaranthus retroflexus, Chenopodium album, Commelina communis, Sonchus arvensis, Convolvulus arvensis, Cirsium setosum, Solanum nigrum, Acalypha australis, Digitaria sanguinalis, Echinochloa crusgalli, Setaria viridis, Setaria glauca, Leptochloa chinensis, Monochoria vaginalis, Sagittaria trifolia, Scirpus juncoides, Cyperus rotundus, Cyperus iria, Cyperus difformis, Fimbristylis, Portulaca oleracea, Xanthium sibiricum, Pharbitis nil, Conyza japonica, etc.) and major crop seeds (wheat, corn, rice, soybean, cotton, oilseed rape, millet, sorghum, potato, sesame, ricinus, etc.) were placed in plastic pots filled with soil, then covered with 0.5-2 cm of soil, allowed to grow in a good greenhouse environment. After 2 weeks of sowing, the test plants were treated in the 2-3 leaf stage. The tested compounds of the present invention were respectively dissolved in acetone, then added with Tween 80 and 1.5 liter/ha of emulsifiable concentrate of methyl oleate as synergist, diluted with a certain amount of water to obtain a solution with a certain concentration, and sprayed with a spray tower onto the plants. After the application, the plants were cultured for 3 weeks in the greenhouse, and then the experimental results of the weeding were counted. The doses of the used compounds were 500, 250, 125, 60, 15, 7.5 g a.i./ha, and the averages were obtained by repeating for three times.

Alopecurus japonicus = test system: Alopecurus japonicus
Description: as §1, §2, §3, §4

Conyza japonica = test system: Conyza japonica
Description: as §1, §2, §3, §4

Beckmannia syzigachne = test system: Beckmannia syzigachne
Description: as §1, §2, §3, §4

Row | Compound | weeding effect in post-emergence stage, Rorippa indica (activity level) (Rorippa indica; dose 15 g a.i./ha) | weeding effect in post-emergence stage, Rorippa indica (activity level) (Rorippa indica; dose 125 g a.i./ha) | weeding effect in post-emergence stage, Alopecurus japonicus (activity level) (Alopecurus japonicus; dose 15 g a.i./ha) | weeding effect in post-emergence stage, Alopecurus japonicus (activity level) (Alopecurus japonicus; dose 125 g a.i./ha) | weeding effect in post-emergence stage, Conyza japonica (activity level) (Conyza japonica; dose 15 g a.i./ha) | weeding effect in post-emergence stage, Conyza japonica (activity level) (Conyza japonica; dose 125 g a.i./ha) | weeding effect in post-emergence stage, Beckmannia syzigachne (activity level) (Beckmannia syzigachne; dose 15 g a.i./ha) | weeding effect in post-emergence stage, Beckmannia syzigachne (activity level) (Beckmannia syzigachne; dose 125 g a.i./ha)
1 | CCCCC1(C(=O)OCC)CC(c2cc(-n3c(=O)n(C)c(=S)n(C)c3=O)c(F)cc2Cl)=NO1 (racemic) [Compound 6] | 5 (Level 5: growth control rate is above 85%) | 5 (Level 5: growth control rate is above 85%) | 5 (Level 5: growth control rate is above 85%) | 5 (Level 5: growth control rate is above 85%) | 5 (Level 5: growth control rate is above 85%) | 5 (Level 5: growth control rate is above 85%) | 5 (Level 5: growth control rate is above 85%) | 5 (Level 5: growth control rate is above 85%)
2 | CCOC(=O)C1(C2CC2)CC(c2cc(-n3c(=O)n(C)c(=S)n(C)c3=O)c(F)cc2Cl)=NO1 (racemic) [Compound 17] | 5 (Level 5: growth control rate is above 85%) | 5 (Level 5: growth control rate is above 85%) | 5 (Level 5: growth control rate is above 85%) | 5 (Level 5: growth control rate is above 85%) | 5 (Level 5: growth control rate is above 85%) | 5 (Level 5: growth control rate is above 85%) | 5 (Level 5: growth control rate is above 85%) | 5 (Level 5: growth control rate is above 85%)
3 | CCOC(=O)C1(CC2CC2)CC(c2cc(-n3c(=O)n(C)c(=S)n(C)c3=O)c(F)cc2Cl)=NO1 (racemic) [Compound 26] | 5 (Level 5: growth control rate is above 85%) | 5 (Level 5: growth control rate is above 85%) | 5 (Level 5: growth control rate is above 85%) | 5 (Level 5: growth control rate is above 85%) | 5 (Level 5: growth control rate is above 85%) | 5 (Level 5: growth control rate is above 85%) | 5 (Level 5: growth control rate is above 85%) | 5 (Level 5: growth control rate is above 85%)
4 | CCOC(=O)C1(CBr)CC(c2cc(-n3c(=O)n(C)c(=S)n(C)c3=O)c(F)cc2Cl)=NO1 (racemic) [Compound 31] |  | 5 (Level 5: growth control rate is above 85%) |  | 5 (Level 5: growth control rate is above 85%) |  | 5 (Level 5: growth control rate is above 85%) |  | 5 (Level 5: growth control rate is above 85%)
5 | CCOC(=O)C1(C(F)(F)F)CC(c2cc(-n3c(=O)n(C)c(=S)n(C)c3=O)c(F)cc2Cl)=NO1 (racemic) [Compound 33] |  | 5 (Level 5: growth control rate is above 85%) |  | 5 (Level 5: growth control rate is above 85%) |  | 5 (Level 5: growth control rate is above 85%) |  | 5 (Level 5: growth control rate is above 85%)
6 | CCOC(=O)C1(CCF)CC(c2cc(-n3c(=O)n(C)c(=S)n(C)c3=O)c(F)cc2Cl)=NO1 (racemic) [Compound 34] | 5 (Level 5: growth control rate is above 85%) | 5 (Level 5: growth control rate is above 85%) | 5 (Level 5: growth control rate is above 85%) | 5 (Level 5: growth control rate is above 85%) | 5 (Level 5: growth control rate is above 85%) | 5 (Level 5: growth control rate is above 85%) | 5 (Level 5: growth control rate is above 85%) | 5 (Level 5: growth control rate is above 85%)
7 | CCOC(=O)C1(CC(F)F)CC(c2cc(-n3c(=O)n(C)c(=S)n(C)c3=O)c(F)cc2Cl)=NO1 (racemic) [Compound 35] | 5 (Level 5: growth control rate is above 85%) | 5 (Level 5: growth control rate is above 85%) |  | 5 (Level 5: growth control rate is above 85%) | 4 (Level 4: growth control rate is greater than or equal to 60% and less than 85%) | 5 (Level 5: growth control rate is above 85%) |  | 5 (Level 5: growth control rate is above 85%)
8 | CCOCC1(C(=O)OCC)CC(c2cc(-n3c(=O)n(C)c(=S)n(C)c3=O)c(F)cc2Cl)=NO1 (racemic) [Compound 43] | 5 (Level 5: growth control rate is above 85%) | 5 (Level 5: growth control rate is above 85%) |  | 5 (Level 5: growth control rate is above 85%) | 4 (Level 4: growth control rate is greater than or equal to 60% and less than 85%) | 5 (Level 5: growth control rate is above 85%) |  | 5 (Level 5: growth control rate is above 85%)
9 | CCOC(=O)COCC1(C(=O)OCC)CC(c2cc(-n3c(=O)n(C)c(=S)n(C)c3=O)c(F)cc2Cl)=NO1 (racemic) [Compound 54] |  | 5 (Level 5: growth control rate is above 85%) |  | 5 (Level 5: growth control rate is above 85%) |  | 5 (Level 5: growth control rate is above 85%) |  | 5 (Level 5: growth control rate is above 85%)
